Measured values from patent publication US20260144769A1, “4-PHENYLBUTYRATE RESTORED GABA UPTAKE AND REDUCED SEIZURES IN SLC6A1 VARIANT-MEDIATED DISORDERS” (Vanderbilt University, priority 2022, published 2026).

Tests used:
Assay in all cases: 3H GABA uptake, HEK293T, mixture of wildtype and mutant cDNAs ("heterozygous")
Assay type in all cases: cell-based, rat
[1] = test system: wildtype GAT-1 + GAT-1 A288V; settings: wildtype:A288V cDNAs 1:1; PBA 2 mM, 24 hrs
Description: (§1) GABA uptake activity was measured by the high-throughput 3H radio-labeling GABA uptake on a liquid scintillator with QuantaSmart. […] HEK293T cells were transfected with the wildtype or the mutant GAT-1^YFP cDNAs alone for 48 hr. […] HEK293T cells were transfected with the wildtype GAT-1^YFP alone or in mixture of the wildtype or the mutant cDNAs for 48 hr. In the mixed condition, the ratio of the wildtype GAT-1 with pcDNA or the mutant cDNAs are 1:1 with the total cDNA amount of 0.5 μg. […] Both wt and the mutant were normalized to its own DMSO treated conditions. 966 stands for the wildtype treated with CI-966 (50 μM) while 711 stands for NNC-711 (35 μM). (N=4-7 different transfections. In FIG. 4A and FIG. 4B, *P<0.05, **P<0.01, ***p<0.001 vs. wt 0. In FIG. C and FIG. 4D, *P<0.05, **P<0.01, ***p<0.001 vs. its own DMSO treated. In FIG. 4C, ns stands for no significance. One-way analysis of variance (ANOVA) and Newman-Keuls test. Values were expressed as mean±S.E.M.
(§2) The plasmid cDNA encoding enhanced yellow fluorescent protein (EYFP)-tagged rat GAT-1 has been previously described. The coding region of rGAT-1 was inserted into pEYFP-C1 (Clontech, Palo Alto, CA). QuikChange Site-directed Mutagenesis kit was utilized to introduce the GAT-1 variants into a wildtype GAT-1 plasmid. The product was then amplified via polymerase chain reaction, transformed using DH5a competent cells, and plated. A clone was chosen and grown overnight. All the GAT-1 variants were confirmed by DNA sequencing. Both the wildtype and the variant cDNAs were prepared with Qiagen Maxiprep kit.
(§3) Human embryonic kidney cells were cultured as monolayers in 100 mm^2 dishes. Cells were cultured in Dulbecco's Modified Eagle's Medium supplemented with 10% FBS and 1% penicillin/streptomycin in 37° C. in 5% CO2/95% air. Cells were maintained in culture medium until appropriate confluency for experimentation.
(§4) Briefly, cells were cultured in […] dishes for 3 days before the GABA uptake experiment in DMEM with 10% fetal bovine serum and 1% penicillin/streptomycin. The cells were then transfected with equal amounts of the wildtype or the mutant GAT-1 cDNAs (1 μg) for each condition at 24 hrs or 48 hrs after plating. GABA uptake assay was carried out 48 hrs after transfection. The cells were incubated with preincubation solution for 15 min and then incubated with preincubation solution containing 1 μci/mL 3H GABA and 10 μM unlabeled GABA for 30 min at room temperature. After washing, the cells were lysed with 0.25 N NaOH for 1 hr. Glacial acetic acid was added, and lysates were then determined on a liquid scintillator with QuantaSmart. The flux of GABA (pmol/μg/min) was averaged with at least triplets for each condition at each transfection. The average counting was taken as n=1. The untransfected condition was taken as a baseline that was subtracted from both the wildtype and the mutant conditions. The pmol/μg/min in the mutant was then normalized to the wildtype from each experiment, which was arbitrarily taken as 100%. The protocols for GABA reuptake assay in cultured mouse astrocytes, neuron or iPSC derived cells were modified from the GABA uptake protocol on HEK 293T cells. GAT-1 inhibitors CL-966 and NNC-711 were applied each time to make sure the radioactive counts were specific.
(§5) The working solution was stored at 4° C.

[2] = test system: wildtype GAT-1 + GAT-1 D410E; settings: wildtype:D410E cDNAs 1:1; PBA 2 mM, 24 hrs
Description: as §1, §2, §3, §4, §5

[3] = test system: wildtype GAT-1 + GAT-1 L460R; settings: wildtype:L460R cDNAs 1:1; PBA 2 mM, 24 hrs
Description: as §1, §2, §3, §4, §5

[4] = test system: wildtype GAT-1 + GAT-1 S295L; settings: wildtype:S295L cDNAs 1:1; PBA 2 mM, 24 hrs
Description: as §1, §2, §3, §4, §5

[5] = test system: wildtype GAT-1 + GAT-1 V125M; settings: wildtype:V125M cDNAs 1:1; PBA 2 mM, 24 hrs
Description: as §1, §2, §3, §4, §5

[6] = test system: wildtype GAT-1 + GAT-1 W495X; settings: wildtype:W495X cDNAs 1:1; PBA 2 mM, 24 hrs
Description: as §1, §2, §3, §4, §5

O=C(O)CCCc1ccccc1 [PBA, 4-phenylbutyric acid]
GABA uptake normalized to its own DMSO treated condition [1]: 1.248±0.053
GABA uptake normalized to its own DMSO treated condition [2]: 1.17±0.035
GABA uptake normalized to its own DMSO treated condition [3]: 1.214±0.037
GABA uptake normalized to its own DMSO treated condition [4]: 1.318±0.062
GABA uptake normalized to its own DMSO treated condition [5]: 1.33±0.05
GABA uptake normalized to its own DMSO treated condition [6]: 1.305±0.0296
